# According to patent publication US11806402B2, “Sulfoalkyl ether cyclodextrin compositions” (CyDex Pharmaceuticals, Inc., priority 2008, dated 2023):
# Assay: Assay and impurity analysis (HPLC) of heat-stressed SBE6.6-β-CD/glucocorticosteroid (budesonide) formulation
# Format: physicochemical
# Conditions: glucocorticosteroid standard, no SBE6.6-β-CD lot
# Procedure: Comparative evaluation of the stability of various lots of SBE6.6-β-CD that underwent a single or a double treatment with activated carbon (according to Examples 27 and 24, respectively) were formulated with a glucocorticosteroid (budesonide) and an excipient (water), and were examined by HPLC. The general procedure is provided below.
# SBE6.6-β-CD solutions (7.5% w/w, formulated with SBE6.6-β-CD Lot Nos. 17CX01.HQ00025, 17CX01.HQ00029 and 17CX01.HQ00041), were prepared by dissolving about 7.5 grams of SBE6.6-β-CD (corrected for water content) in 100 mL of water. A glucocorticosteroid was weighed in amounts in excess of the anticipated solubilities directly into TEFLON®-lined screw-capped containers. Approximately 275 μg/mL of the glucocorticoid steroid was vigorously stirred for 2 hours in an amber glass container. At the end of the agitation time, the glucocorticosteroid solution was filtered using a 0.24 μm syringe filter.
# Control solution samples were removed before autoclaving. Aliquots of the solutions were autoclaved for four 20 minute cycles at 121° C. The samples were then analyzed by HPLC to determine assay content and the level of impurities formed during the heating cycles. Solution samples of SBE6.6-β-CD were prepared and analyzed on a PERKIN ELMER Lambda 35 UV/Vis spectrophotometer, scanning from 190 nm to 400 nm at a speed of 240 nm/min and a slit width of 1.0 nm to determine the UV content.
structure (smiles),measurement,value
"CCCC1O[C@@H]2C[C@H]3[C@@H]4CCC5=CC(=O)C=C[C@]5(C)[C@H]4[C@@H](O)C[C@]3(C)[C@]2(C(=O)CO)O1 (stereo partly drawn) [Glucocorticosteroid (“GS”) Std., budesonide]",Assay GS Total,99.385 Area %
same,Assay R-GS,51.888 Area %
same,Assay S-GS,47.497 Area %
same,Assay Δ,0%
same,Impurities A,0.001 Area %
same,Impurities B (S-11-keto-derivative),0.127 Area %
